Data from publication PMC3677030 (ChemMedChem, 2012).
Like-named read-outs stand apart in the source and are kept apart here.

Legend:
[1] = target: T1, EphA2-ephrin-A1 interaction (EphA2-Fc ectodomain) (Mus musculus, UniProt Q03145); type: binding; settings: for Activity in EphA2-ephrin-A1 binding assay, in words: tested starting from 200 μM; for Schild plot slope: slope between 0.8 and 1.2 indicates competitive binding
EGF receptor [2] = target: T2, EGF receptor (Homo sapiens, UniProt P00533); assay: EGF receptor phosphorylation induced by EGF in PC3 cells; type: cell-based; settings: up to 100 μM, 30 ng/ml EGF
EphA2 receptor [3] = target: EphA2 receptor (Homo sapiens, UniProt P29317); assay: EphA2 phosphorylation induced by ephrin-A1-Fc in PC3 cells; type: cell-based; settings: no ephrin, data not shown
EphB4 receptor = target: T3, EphB4 receptor (Homo sapiens, UniProt P54760); assay: EphB4 phosphorylation induced by ephrin-B2-Fc in T47D cells; type: cell-based; settings: no ephrin, data not shown
T3 sequence (P54760 16-987): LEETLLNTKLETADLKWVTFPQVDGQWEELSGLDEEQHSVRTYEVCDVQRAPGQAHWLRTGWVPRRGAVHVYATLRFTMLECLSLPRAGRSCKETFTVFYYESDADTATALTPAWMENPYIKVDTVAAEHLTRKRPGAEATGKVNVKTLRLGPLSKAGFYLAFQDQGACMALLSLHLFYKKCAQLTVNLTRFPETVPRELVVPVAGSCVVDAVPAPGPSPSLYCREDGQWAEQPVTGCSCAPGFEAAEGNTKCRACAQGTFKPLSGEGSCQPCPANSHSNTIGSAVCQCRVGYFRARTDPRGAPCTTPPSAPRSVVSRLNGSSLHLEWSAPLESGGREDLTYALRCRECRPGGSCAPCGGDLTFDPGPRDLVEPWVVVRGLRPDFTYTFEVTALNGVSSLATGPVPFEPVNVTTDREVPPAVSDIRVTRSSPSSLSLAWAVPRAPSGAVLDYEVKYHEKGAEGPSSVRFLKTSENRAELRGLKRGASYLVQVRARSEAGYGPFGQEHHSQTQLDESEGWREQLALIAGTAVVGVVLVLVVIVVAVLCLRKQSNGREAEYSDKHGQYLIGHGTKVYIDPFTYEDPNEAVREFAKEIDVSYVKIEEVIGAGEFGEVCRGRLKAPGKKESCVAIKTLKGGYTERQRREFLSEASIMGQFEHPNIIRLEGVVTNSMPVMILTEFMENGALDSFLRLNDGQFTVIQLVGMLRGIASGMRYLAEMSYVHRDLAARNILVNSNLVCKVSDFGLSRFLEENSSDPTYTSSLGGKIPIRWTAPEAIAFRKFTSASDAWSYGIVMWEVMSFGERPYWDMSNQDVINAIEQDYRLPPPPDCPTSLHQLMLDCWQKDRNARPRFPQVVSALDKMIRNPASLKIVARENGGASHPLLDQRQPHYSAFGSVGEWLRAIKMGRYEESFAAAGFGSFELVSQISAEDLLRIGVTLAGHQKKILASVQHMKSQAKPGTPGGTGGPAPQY

[4] = test system: EphA receptors (vs EphB receptors); type: binding; settings: compared with lithocholic acid
[5] = target: T4, recombinant human EphA2 kinase domain (Homo sapiens, UniProt P29317); assay: EphA2 kinase assay; type: biochemical; settings: 100 μM, 30 minutes
T4 sequence (P29317 613-875 limits assumed): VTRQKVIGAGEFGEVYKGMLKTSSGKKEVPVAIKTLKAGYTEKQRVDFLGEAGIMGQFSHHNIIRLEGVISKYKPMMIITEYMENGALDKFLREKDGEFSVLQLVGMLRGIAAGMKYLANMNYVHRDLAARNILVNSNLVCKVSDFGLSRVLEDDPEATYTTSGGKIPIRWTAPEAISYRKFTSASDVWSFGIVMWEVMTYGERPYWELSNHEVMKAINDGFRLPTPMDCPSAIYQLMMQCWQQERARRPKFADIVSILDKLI

EphA2 receptor [6] = target: EphA2 receptor (Mus musculus, UniProt Q03145); assay: Surface plasmon resonance; type: binding; settings: for Kd: SPR
insulin receptor = settings: cited from earlier work
[7] = test system: insulin-like growth factor receptor 1; settings: cited from earlier work
[8] = target: T1, EphA2-ephrin-A1 interaction (EphA2-Fc ectodomain); settings: read-out: Ki, competitive antagonist of the EphA2 receptor; earlier work; cited from earlier work
VEGF receptor = settings: cited from earlier work
EGF receptor [9] = target: T2, EGF receptor; settings: cited from earlier work

T1 sequence (Q03145 26-538 limits assumed): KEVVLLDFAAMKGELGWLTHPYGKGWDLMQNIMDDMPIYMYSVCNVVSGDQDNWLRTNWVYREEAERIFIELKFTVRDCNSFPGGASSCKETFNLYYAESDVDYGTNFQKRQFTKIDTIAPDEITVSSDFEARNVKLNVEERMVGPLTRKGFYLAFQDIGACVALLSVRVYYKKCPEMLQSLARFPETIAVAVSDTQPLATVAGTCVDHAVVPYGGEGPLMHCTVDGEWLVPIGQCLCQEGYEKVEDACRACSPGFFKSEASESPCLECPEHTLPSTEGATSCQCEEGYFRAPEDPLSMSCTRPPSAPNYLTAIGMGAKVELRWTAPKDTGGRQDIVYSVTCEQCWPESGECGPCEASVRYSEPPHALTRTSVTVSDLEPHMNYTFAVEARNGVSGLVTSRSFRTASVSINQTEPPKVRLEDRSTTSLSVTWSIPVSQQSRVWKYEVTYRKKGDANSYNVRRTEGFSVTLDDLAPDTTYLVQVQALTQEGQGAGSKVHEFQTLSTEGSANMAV
Chain of EphA2 receptor (Mus musculus, UniProt Q03145) (Q03145 26-538 limits assumed): as above
T2 sequence (P00533 25-1210): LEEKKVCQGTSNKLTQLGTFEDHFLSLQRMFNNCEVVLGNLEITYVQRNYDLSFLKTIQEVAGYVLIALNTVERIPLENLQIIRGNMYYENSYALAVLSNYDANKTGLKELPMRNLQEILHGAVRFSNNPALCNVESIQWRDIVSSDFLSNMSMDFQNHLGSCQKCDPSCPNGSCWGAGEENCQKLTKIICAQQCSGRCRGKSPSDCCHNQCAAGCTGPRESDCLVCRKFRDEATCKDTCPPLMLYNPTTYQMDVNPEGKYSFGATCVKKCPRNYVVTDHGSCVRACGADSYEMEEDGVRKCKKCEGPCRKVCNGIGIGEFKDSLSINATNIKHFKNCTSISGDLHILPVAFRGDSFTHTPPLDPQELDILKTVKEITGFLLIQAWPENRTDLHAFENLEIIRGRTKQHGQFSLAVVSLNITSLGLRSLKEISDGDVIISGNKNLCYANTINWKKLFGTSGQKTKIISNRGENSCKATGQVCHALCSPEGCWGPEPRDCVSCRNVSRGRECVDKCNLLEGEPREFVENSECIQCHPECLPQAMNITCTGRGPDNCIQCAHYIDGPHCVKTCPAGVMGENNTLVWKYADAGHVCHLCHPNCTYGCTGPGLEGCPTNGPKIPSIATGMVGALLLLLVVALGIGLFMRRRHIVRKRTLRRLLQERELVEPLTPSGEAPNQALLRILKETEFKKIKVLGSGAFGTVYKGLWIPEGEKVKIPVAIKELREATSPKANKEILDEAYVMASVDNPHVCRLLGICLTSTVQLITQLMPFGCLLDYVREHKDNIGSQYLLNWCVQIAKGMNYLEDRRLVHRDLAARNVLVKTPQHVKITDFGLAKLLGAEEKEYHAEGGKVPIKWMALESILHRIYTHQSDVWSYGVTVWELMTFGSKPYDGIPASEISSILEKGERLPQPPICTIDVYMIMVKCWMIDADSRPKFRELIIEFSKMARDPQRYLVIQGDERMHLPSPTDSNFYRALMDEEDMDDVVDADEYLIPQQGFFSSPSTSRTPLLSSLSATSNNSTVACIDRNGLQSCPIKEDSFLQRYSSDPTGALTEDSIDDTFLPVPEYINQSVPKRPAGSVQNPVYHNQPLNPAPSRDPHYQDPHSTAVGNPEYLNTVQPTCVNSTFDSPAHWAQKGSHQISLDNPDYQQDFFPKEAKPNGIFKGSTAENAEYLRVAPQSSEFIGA
Chain of EphA2 receptor (Homo sapiens, UniProt P29317) (P29317 24-976): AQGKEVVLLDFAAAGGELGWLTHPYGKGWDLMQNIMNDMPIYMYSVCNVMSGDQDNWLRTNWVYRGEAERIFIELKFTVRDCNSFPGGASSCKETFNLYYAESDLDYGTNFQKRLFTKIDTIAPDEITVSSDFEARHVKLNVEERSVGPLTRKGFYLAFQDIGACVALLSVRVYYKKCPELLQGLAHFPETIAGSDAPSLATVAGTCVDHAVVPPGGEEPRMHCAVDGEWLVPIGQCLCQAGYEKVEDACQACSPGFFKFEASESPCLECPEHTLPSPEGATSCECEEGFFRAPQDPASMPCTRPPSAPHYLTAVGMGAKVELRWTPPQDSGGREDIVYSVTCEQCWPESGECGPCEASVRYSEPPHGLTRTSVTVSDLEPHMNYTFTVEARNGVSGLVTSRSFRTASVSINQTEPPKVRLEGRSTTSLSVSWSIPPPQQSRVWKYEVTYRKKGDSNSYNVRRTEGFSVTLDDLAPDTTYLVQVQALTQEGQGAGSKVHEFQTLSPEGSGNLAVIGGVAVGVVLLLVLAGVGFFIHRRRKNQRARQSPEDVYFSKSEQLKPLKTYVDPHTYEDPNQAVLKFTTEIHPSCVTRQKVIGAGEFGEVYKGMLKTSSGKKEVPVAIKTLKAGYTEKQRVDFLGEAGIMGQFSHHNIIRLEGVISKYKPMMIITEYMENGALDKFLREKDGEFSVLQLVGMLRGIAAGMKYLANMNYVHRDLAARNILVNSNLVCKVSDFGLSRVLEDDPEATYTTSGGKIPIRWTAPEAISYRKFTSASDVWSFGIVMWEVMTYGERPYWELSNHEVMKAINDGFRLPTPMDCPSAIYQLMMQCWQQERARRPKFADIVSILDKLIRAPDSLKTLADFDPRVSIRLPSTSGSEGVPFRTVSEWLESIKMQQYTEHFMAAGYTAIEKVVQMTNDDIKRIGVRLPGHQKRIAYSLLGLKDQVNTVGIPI

| SMILES | Ki [1] | Activity in EphA2-ephrin-A1 binding assay, in words [1] | other results |
| --- | --- | --- | --- |
| C[C@H](CCC(=O)NO)[C@H]1CC[C@H]2[C@@H]3CC[C@@H]4C[C@H](O)CC[C@]4(C)[C@H]3CC[C@]12C [Compound 14, (3α,5β)-3-Hydroxycholan-24-hydroxamic acid] | > 200 µM | inactive or weakly active |  |
| C[C@H](CCC(=O)O)[C@H]1CC[C@H]2[C@@H]3CC[C@@H]4C[C@H](O)CC[C@]4(C)[C@H]3C[C@H](O)[C@]12C [Compound 3, deoxycholic acid] | > 200 µM | inactive |  |
| C[C@H](CCCO)[C@H]1CC[C@H]2[C@@H]3CC[C@@H]4C[C@H](O)CC[C@]4(C)[C@H]3CC[C@]12C [Compound 16, (3α,5β)-Cholan-3,24-diol] | 186 ± 27 µM | inactive or weakly active |  |
| C[C@H](CCC(=O)O)[C@H]1CC[C@H]2[C@@H]3CC[C@@H]4C[C@@H](O)CC[C@]4(C)[C@H]3CC[C@]12C [Compound 10, (3β,5β)-3-hydroxycholan-24-oic acid] |  |  | IC50 [1]: 67 µM; Schild plot slope ([1]; listed as isolithocholic): 0.96 ± 007 |
| C[C@H](CCC(=O)O)[C@H]1CC[C@H]2[C@@H]3[C@H](O)C[C@@H]4C[C@H](O)CC[C@]4(C)[C@H]3CC[C@]12C [Compound 4, chenodeoxycholic acid] | > 200 µM | inactive |  |
| C[C@H](CCC(=O)O)[C@H]1CC[C@H]2[C@@H]3CC[C@@H]4CCCC[C@]4(C)[C@H]3CC[C@]12C [Compound 12, (5β)-cholan-24-oic acid] | 5.1 ± 1.4 µM |  | Effect on EGF receptor activation induced by EGF (EGF receptor [2]): did not interfere; Stimulation of EphA2 tyrosine phosphorylation by compound on its own (EphA2 receptor [3]): did not stimulate; Stimulation of EphB4 tyrosine phosphorylation by compound on its own (EphB4 receptor): did not stimulate; Selectivity between Eph receptor subfamilies, in words [4]: more selective for the EphA receptor subfamily; Effect on EphA2 kinase activity [5]: did not affect; Kd (EphA2 receptor [6]; KD from steady state analysis, steady state affinity): 1.16 µM; Kd (EphA2 receptor [6]; affinity constant (KD) from kinetic analysis, koff/kon): 8.45 µM; kon (EphA2 receptor [6]; read-out: association rate (kon)): 44000 M⁻¹ s⁻¹; koff (EphA2 receptor [6]; read-out: dissociation rate (koff)): 0.369 s⁻¹; Schild plot slope ([1]; listed as cholanic acid): 0.98 ± 002 |
| C[C@H](CCC(=O)O)[C@H]1CC[C@H]2[C@@H]3CC[C@@H]4C[C@@H](S(=O)(=O)O)CC[C@]4(C)[C@H]3CC[C@]12C [Compound 11, (3β,5β)-3-sulfocholan-24-oic acid] | > 200 µM | inactive |  |
| COC(=O)CC[C@@H](C)[C@H]1CC[C@H]2[C@@H]3CC[C@@H]4C[C@H](O)CC[C@]4(C)[C@H]3CC[C@]12C [Compound 13, methyl (3α,5β)-3-hydroxycholan-24-oate] | > 200 µM | inactive or weakly active |  |
| C[C@H](CCC(=O)O)[C@H]1CC[C@H]2[C@@H]3[C@H](O)C[C@@H]4C[C@H](O)CC[C@]4(C)[C@H]3C[C@H](O)[C@]12C [Compound 2, cholic acid] | > 200 µM | inactive |  |
| C[C@H](CCC(=O)O)[C@H]1CC[C@H]2[C@@H]3CC[C@@H]4C[C@H](O)CC[C@]4(C)[C@H]3CC[C@]12C [Compound 1, (3α,5β)-3-hydroxycholan-24-oic acid] |  |  | Effect on insulin receptor (insulin receptor): lack of effects; Effect on insulin-like growth factor receptor 1 [7]: lack of effects; Ki [8]: 49 ± 3 µM; Effect on VEGF receptor (VEGF receptor): lack of effects; Effect on EGF receptor (EGF receptor [9]): lack of effects |
| C[C@H](CCC(=O)NN)[C@H]1CC[C@H]2[C@@H]3CC[C@@H]4C[C@H](O)CC[C@]4(C)[C@H]3CC[C@]12C [Compound 15, (3α,5β)-3-Hydroxycholan-24-hydrazide] | > 200 µM | inactive or weakly active |  |
